Experiment: Solubility of genistin in isoflavone containing eluate as a function of pH (FIG. 1)
Type: physicochemical
Description: Concentrations of isoflavones in a supernatant are shown, making each isoflavone concentration at the time of elution 100.).

solubility of genistin in an isoflavone containing eluate (pHs of not less than 10): extremely high | solubility of genistin in an isoflavone containing eluate (pHs of not more than 9.5): extremely low
SMILES: O=c1c(-c2ccc(O)cc2)coc2cc(O[C@@H]3O[C@H](CO)[C@@H](O)[C@H](O)[C@H]3O)cc(O)c12 [genistin]

Source: US6479054B1, “Process for obtaining genistin-rich isoflavone composition” (Showa Sangyo Co., Ltd., priority 1998, dated 2002)
